Assay [1] concerns the target T1, Plasmodium falciparum 1-deoxy-D-xylulose 5-phosphate reductoisomerase (PfDxr) (Plasmodium falciparum, UniProt Q8IKG4).
T1 sequence (Q8IKG4 73-488): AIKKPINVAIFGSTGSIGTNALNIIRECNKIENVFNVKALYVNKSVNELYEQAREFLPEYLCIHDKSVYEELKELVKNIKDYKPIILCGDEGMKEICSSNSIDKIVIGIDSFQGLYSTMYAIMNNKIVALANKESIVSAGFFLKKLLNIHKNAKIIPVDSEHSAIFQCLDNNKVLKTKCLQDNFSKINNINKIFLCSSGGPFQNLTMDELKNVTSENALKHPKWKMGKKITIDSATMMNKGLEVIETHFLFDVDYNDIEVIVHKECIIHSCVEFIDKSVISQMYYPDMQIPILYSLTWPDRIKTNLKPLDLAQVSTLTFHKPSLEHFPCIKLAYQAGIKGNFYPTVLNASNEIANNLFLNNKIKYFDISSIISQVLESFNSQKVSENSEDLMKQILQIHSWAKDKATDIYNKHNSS
Briefly: inhibition of purified recombinant PfDxr, NADPH consumption assay. Format: biochemical.

Assay [2] has as its target T1, Plasmodium falciparum 1-deoxy-D-xylulose 5-phosphate reductoisomerase (PfDxr). Briefly: co-crystal structure. Format: biochemical.

Molecules are shown by their SMILES.

By Ki is commonly meant the equilibrium dissociation constant of an inhibitor or competing ligand from its target. As to `CCC(=O)N(O)CCCP(=O)(O)O` [FR-900098P], in assay [1], the Ki stood at 0.92 ± 0.19 nM. Turning to `CC(=O)N(O)CCCP(=O)(O)O` [FR-900098], affinity in assay [2] was put at a Ki of 3.7 ± 0.9 nM.

The values are drawn from article PMC4312176 (Chemical communications (Cambridge, England), 2015).
